In patent US20210337789A1, “Derivatives of m-Guaiacol, Their Preparation and Their Uses” (Universite de Caen Normandie, priority 2018, published 2021):

Assays:
[1] = system: Staphylococcus aureus; test: Bacterial growth screening on wild-type phenotype strain, S. aureus; assay type: cell-based
Description: (§1) The bacterial growth is evaluated by measuring the optical density (DO) at 600 nm using NanoDrop.
(§2) This ratio permits a classification of the molecules in 4 effect levels: • 0=no effect observed; • 1=effect observed only when the molecule is tested pure; • 2=effect observed at several concentrations, but which gradually decreases the dilutions; • 3=strong effect observed at each concentration of molecule tested.
(§3) A screening of molecules of the invention on several wild-type phenotype strains has been carried out.
(§4) The strains initially selected are: • Gram+: Streptococcus equi subsp zooepidemicus and Staphylococcus aureus • Gram−: Escherichia coli, Klebsiella pneumoniae and Stenotrophomonas maltophila.

[2] = system: Micrococcus luteus reference strain; test: Bacterial growth (optical density at 600 nm) on Micrococcus luteus reference strain; assay type: cell-based; design: key: 0 = no effect, 1 = pure only, 2 = several concentrations, 3 = strong at all; conditions: in DMSO diluted in PBS, compared with triclosan
Description: as §1, §2
The molecules are put in a solution in DMSO and diluted in PBS.

[3] = system: Klebsiella pneumoniae; test: Bacterial growth screening on wild-type phenotype strain, K. pneumoniae; assay type: cell-based
Description: as §1, §2, §3, §4

[4] = system: KB cells (epidermoid carcinoma); test: In vitro cytotoxicity, cell proliferation test (MTS) on KB cells; assay type: cell-based; conditions: Homo sapiens, KB cells, triplicate, 72 hours of exposure, with respect to DMSO control, read-out: percentage of inhibition of cell growth
Description: The human cell strain KB (epidermoid carcinoma) was obtained from the NCI (National Cancer Institute) and cultivated in the D-MEM medium added with 10% of foetal bovine serum (Invitrogen) in the presence of penicillin, streptomycin and fungizone in flasks of […] under CO2 at 5%. The cells were deposited on tissue culture microplates with 96 wells and a density of 650 cells/well in 200 μl of medium and treated 24 hours later with compounds of the invention dissolved in DMSO at concentrations going from 0.5 nM to 10 μM using a Biomek 3000 (Beckman-Coulter) automaton. The controls received the same volume of DMSO (1% of final volume). After 72 hours of exposure, the MTS reagent (Celltiter 96Aqueous One solution, Promega) was added and incubated for 3 hours at 37° C.: the absorbance was measured at 490 nm and the results of inhibition of the cell proliferation were calculated according to the ratio [(1−(OD490treated/OD490control))×100].
Results: Cytotoxicity at 10^−5 and 10^−6M on Triplicate KB Cells, Measured after 72 Hours of Exposure.
The percentage of inhibition of cell growth with respect to the cells receiving the same quantity of DMSO is outlined in the table below.

[5] = system: K. pneumoniae strains presenting high levels of resistance; test: Bacterial growth on K. pneumoniae strains presenting high levels of resistance; assay type: cell-based, Klebsiella pneumoniae; design: key to Effects (0 < 1 < 2 < 3): 0 = no effect; 1 = pure only; 2 = several concs; 3 = strong at each; key to Δ DO: change in optical density measured at 600 nm; conditions: for Effects (0 < 1 < 2 < 3): molecules at 1, 0.5 and 0.1 mg/ml, triclosan at 0.1 mg/ml
Description: as §1, §2
(§5) Compounds of the invention were tested on 4 strains of E. coli, 3 strains of K. pneumoniae and 4 strains of S. aureus with the resistance profiles below.

[6] = system: Stenotrophomonas maltophila; test: Bacterial growth screening on wild-type phenotype strain, S. maltophila; assay type: cell-based
Description: as §1, §2, §3, §4

[7] = system: S. aureus strains presenting high levels of resistance; test: Bacterial growth on S. aureus strains presenting high levels of resistance; assay type: cell-based, Staphylococcus aureus; design: key to Effects (0 < 1 < 2 < 3): 0 = no effect; 1 = pure only; 2 = several concs; 3 = strong at each; key to Δ DO: change in optical density measured at 600 nm; conditions: for Effects (0 < 1 < 2 < 3): molecules at 1, 0.5 and 0.1 mg/ml, triclosan at 0.1 mg/ml
Description: as §1, §2, §5

[8] = system: E. coli strains presenting high levels of resistance; test: Bacterial growth on E. coli strains presenting high levels of resistance; assay type: cell-based, Escherichia coli; design: key to Effects (0 < 1 < 2 < 3): 0 = no effect; 1 = pure only; 2 = several concs; 3 = strong at each; key to Δ DO: change in optical density measured at 600 nm; conditions: for Effects (0 < 1 < 2 < 3): molecules at 1, 0.5 and 0.1 mg/ml, triclosan at 0.1 mg/ml
Description: as §1, §2, §5

[9] = system: Streptococcus equi subsp zooepidemicus; test: Bacterial growth screening on wild-type phenotype strain, S. zooepidemicus; assay type: cell-based
Description: as §1, §2, §3, §4

[10] = system: Escherichia coli; test: Bacterial growth screening on wild-type phenotype strain, E. coli; assay type: cell-based
Description: as §1, §2, §3, §4

COc1cc(O)c(Cl)c(Br)c1Cl [sr7616]
Effect level, S. aureus [1]: 2 | Effect level [2]: 3 | Effect level, K. pneumoniae [3]: 3 | inhibition at 10 µM ([4]; 10^−5 M): 0% | inhibition at 1 µM ([4]; 10^−6 M): 0% | Δ DO ([5]; K. pneumoniae Strain 1, 0.1 mg/ml): 0.236 | Δ DO ([5]; K. pneumoniae Strain 1, 0.5 mg/ml): 0.594 | Δ DO ([5]; K. pneumoniae Strain 1, 1 mg/ml): 0.646 | Effects (0 < 1 < 2 < 3) ([5]; K. pneumoniae Strain 1): 3 | Δ DO ([5]; K. pneumoniae Strain 2, 0.1 mg/ml): 0.151 | Δ DO ([5]; K. pneumoniae Strain 2, 0.5 mg/ml): 0.641 | Δ DO ([5]; K. pneumoniae Strain 2, 1 mg/ml): 0.686 | Effects (0 < 1 < 2 < 3) ([5]; K. pneumoniae Strain 2): 2 | Δ DO ([5]; K. pneumoniae Strain 3, 0.1 mg/ml): 0.213 | Δ DO ([5]; K. pneumoniae Strain 3, 0.5 mg/ml): 0.652 | Δ DO ([5]; K. pneumoniae Strain 3, 1 mg/ml): 0.847 | Effects (0 < 1 < 2 < 3) ([5]; K. pneumoniae Strain 3): 2 | Effect level, S. maltophila [6]: 2 | Δ DO ([7]; S. aureus Strain 1, 0.1 mg/ml): 0.276 | Δ DO ([7]; S. aureus Strain 1, 0.5 mg/ml): 0.443 | Δ DO ([7]; S. aureus Strain 1, 1 mg/ml): 0.445 | Effects (0 < 1 < 2 < 3) ([7]; S. aureus Strain 1): 3 | Δ DO ([7]; S. aureus Strain 2, 0.1 mg/ml): 0.303 | Δ DO ([7]; S. aureus Strain 2, 0.5 mg/ml): 0.458 | Δ DO ([7]; S. aureus Strain 2, 1 mg/ml): 0.459 | Effects (0 < 1 < 2 < 3) ([7]; S. aureus Strain 2): 3 | Δ DO ([7]; S. aureus Strain 3, 0.1 mg/ml): 0.299 | Δ DO ([7]; S. aureus Strain 3, 0.5 mg/ml): 0.529 | Δ DO ([7]; S. aureus Strain 3, 1 mg/ml): 0.525 | Effects (0 < 1 < 2 < 3) ([7]; S. aureus Strain 3): 3 | Δ DO ([7]; S. aureus Strain 4, 0.1 mg/ml): 0.291 | Δ DO ([7]; S. aureus Strain 4, 0.5 mg/ml): 0.491 | Δ DO ([7]; S. aureus Strain 4, 1 mg/ml): 0.491 | Effects (0 < 1 < 2 < 3) ([7]; S. aureus Strain 4): 3 | Δ DO ([8]; E. coli Strain 1, 0.1 mg/ml): 0.089 | Δ DO ([8]; E. coli Strain 1, 0.5 mg/ml): 0.640 | Δ DO ([8]; E. coli Strain 1, 1 mg/ml): 0.857 | Effects (0 < 1 < 2 < 3) ([8]; E. coli Strain 1): 2 | Δ DO ([8]; E. coli Strain 2, 0.1 mg/ml): 0.331 | Δ DO ([8]; E. coli Strain 2, 0.5 mg/ml): 0.854 | Δ DO ([8]; E. coli Strain 2, 1 mg/ml): 1.069 | Effects (0 < 1 < 2 < 3) ([8]; E. coli Strain 2): 3 | Δ DO ([8]; E. coli Strain 3, 0.1 mg/ml): 0.141 | Δ DO ([8]; E. coli Strain 3, 0.5 mg/ml): 0.679 | Δ DO ([8]; E. coli Strain 3, 1 mg/ml): 0.825 | Effects (0 < 1 < 2 < 3) ([8]; E. coli Strain 3): 3 | Δ DO ([8]; E. coli Strain 4, 0.1 mg/ml): 0.308 | Δ DO ([8]; E. coli Strain 4, 0.5 mg/ml): 0.868 | Δ DO ([8]; E. coli Strain 4, 1 mg/ml): 0.853 | Effects (0 < 1 < 2 < 3) ([8]; E. coli Strain 4): 3 | Effect level, S. zooepidemicus [9]: 3 | Effect level, E. coli [10]: 3
